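In this assay, cells in 96-well plates receive the compound at five concentrations for 48 hours. Endpoints are linearly interpolated between the surrounding concentrations. TGI denotes the concentration required for complete inhibition of growth.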
Assays:
Experiment in all cases: NCI tumour cell line growth inhibition, 48 h
SK-MEL-2 melanoma = system: SK-MEL-2 melanoma
HCT-15 colon = system: HCT-15 colon
MCF7 breast = system: MCF7 breast
SF-539 CNS = system: SF-539 CNS
EKVX NSCLC = system: EKVX NSCLC
SR leukemia = system: SR leukemia
K-562 leukemia = system: K-562 leukemia
DU-145 prostate = system: DU-145 prostate
TK-10 renal = system: TK-10 renal
MALME-3M melanoma = system: MALME-3M melanoma
HL-60(TB) leukemia = system: HL-60(TB) leukemia
UACC-257 melanoma = system: UACC-257 melanoma
SF-295 CNS = system: SF-295 CNS
MDA-MB-435 = system: MDA-MB-435
ACHN renal = system: ACHN renal
HS 578T breast = system: HS 578T breast
BT-549 breast = system: BT-549 breast
PC-3 prostate = system: PC-3 prostate
NCI/ADR-RES ovarian = system: NCI/ADR-RES ovarian
OVCAR-3 ovarian = system: OVCAR-3 ovarian
OVCAR-4 ovarian = system: OVCAR-4 ovarian
OVCAR-8 ovarian = system: OVCAR-8 ovarian
KM12 colon = system: KM12 colon
MDA-N = system: MDA-N
786-0 renal = system: 786-0 renal
HOP-92 NSCLC = system: HOP-92 NSCLC
UO-31 renal = system: UO-31 renal
SNB-75 CNS = system: SNB-75 CNS
SNB-19 CNS = system: SNB-19 CNS
HCC-2998 colon = system: HCC-2998 colon
LOX IMVI melanoma = system: LOX IMVI melanoma
NCI-H522 lung = system: NCI-H522 lung
UACC-62 melanoma = system: UACC-62 melanoma
HCT-116 colon = system: HCT-116 colon
NCI-H460 lung = system: NCI-H460 lung
M14 melanoma = system: M14 melanoma
NCI-H226 lung = system: NCI-H226 lung
CCRF-CEM leukemia = system: CCRF-CEM leukemia
NCI-H23 lung = system: NCI-H23 lung
HT29 colon = system: HT29 colon
U251 CNS = system: U251 CNS
SK-OV-3 ovarian = system: SK-OV-3 ovarian
SK-MEL-5 melanoma = system: SK-MEL-5 melanoma
COLO 205 colon = system: COLO 205 colon
HOP-62 NSCLC = system: HOP-62 NSCLC
A498 renal = system: A498 renal
MDA-MB-231 breast = system: MDA-MB-231 breast
RXF 393 renal = system: RXF 393 renal
T-47D breast = system: T-47D breast
RPMI-8226 leukemia = system: RPMI-8226 leukemia
SN12C renal = system: SN12C renal
SF-268 CNS = system: SF-268 CNS
SK-MEL-28 melanoma = system: SK-MEL-28 melanoma
IGROV1 ovarian = system: IGROV1 ovarian
SW-620 colon = system: SW-620 colon
CAKI-1 renal = system: CAKI-1 renal
OVCAR-5 ovarian = system: OVCAR-5 ovarian

Measured: TGI

CCN(CC)C1C(=O)NC1C#Cc1ccccc1 (configuration not stated)
92.1 µM: HOP-92 NSCLC
> 100 µM: SK-MEL-2 melanoma | HCT-15 colon | MCF7 breast | SF-539 CNS | EKVX NSCLC | SR leukemia | K-562 leukemia | DU-145 prostate | TK-10 renal | MALME-3M melanoma | HL-60(TB) leukemia | UACC-257 melanoma | SF-295 CNS | MDA-MB-435 | ACHN renal | HS 578T breast | BT-549 breast | PC-3 prostate | NCI/ADR-RES ovarian | OVCAR-3 ovarian | OVCAR-4 ovarian | OVCAR-8 ovarian | KM12 colon | MDA-N | 786-0 renal | UO-31 renal | SNB-75 CNS | SNB-19 CNS | HCC-2998 colon | LOX IMVI melanoma | NCI-H522 lung | UACC-62 melanoma | HCT-116 colon | NCI-H460 lung | M14 melanoma | NCI-H226 lung | CCRF-CEM leukemia | NCI-H23 lung | HT29 colon | U251 CNS | SK-OV-3 ovarian | SK-MEL-5 melanoma | COLO 205 colon | HOP-62 NSCLC | A498 renal | MDA-MB-231 breast | RXF 393 renal | T-47D breast | RPMI-8226 leukemia | SN12C renal | SF-268 CNS | SK-MEL-28 melanoma | IGROV1 ovarian | SW-620 colon | CAKI-1 renal | OVCAR-5 ovarian

Reference: PubChem BioAssay (NCI)
